From patent US6299910A, “Methods for identification, purification, and manufacturing of the active constituent in Salvia-miltiorrhiza (dansheng) and the application of this product in enhancing cardiovascular functions” (Techical Sourcing International, Inc., priority 2000, dated 2001)

Key:
animal = conditions: Chen et al., 1980; cited from earlier work
[1] = test system: Red blood cell lysis by H2O2; assay: Effect of Dansheng components on red blood cell lysis by H2O2 (Table IV); assay type: cell-based; set-up: key to Effect (red blood cell lysis by H2O2): -: not effective; +: effective; ++: very effective; conditions: 0.33 mg/ml; for inhibition at 330 µg/mL: Erythrocyte, read-out: Degree of Inhibition (red blood cell lysis by H2O2)
Protocol: These compounds were prepared at 0.33 mg/ml.

rats [2] = assay: Effect of Dansheng components on rats under hypoxia condition (Table V); assay type: in vivo; set-up: key to Effect (rats under hypoxia condition): -: not effective; +: effective; ++: very effective; conditions: 100 mg/kg dose
Platelet aggregation [3] = assay: Effect of Dansheng components on platelet anti-aggregation, in vitro (Table VI); assay type: cell-based; set-up: key to Effect (platelet anti-aggregation): -: not effective; +: effective; ++: very effective; conditions: for platelet anti-aggregation potency, in words: Tables II and VI
Platelet aggregation [4] = assay: Platelet anti-aggregation effect of Magnesium Salvianolate B and its derivatives, in vitro (Table II); assay type: cell-based; conditions: 900 mcg/ml
rats [5] = assay: Life extension / endurance under hypoxia condition (Table III); assay type: in vivo; conditions: for extended rats life (up to): hypoxia, dose not given
Protocol: (§1) The other seven compounds are evaluated based on: [1] Their anti-oxidant activity, [2] Anti-platelet aggregation, and [3] Endurance under hypoxia conditions.
Compounds 6 and 8 effectively extended rats life up to 78% Other compounds are comparatively lower in this category (see Tables III and V below).

Liver cell = assay: Effect on liver cell MDA amount induced by carbon tetrachloride (antioxidant activity, liver cell protection; Table I); assay type: cell-based; conditions: 0.5 micro mole/ml
Excerpt: Table I: Effect of Dansheng Constituents on Liver Cell MDA (Molonyldialdehyde) Amount Induced by Carbon Tetrachloride

[6] = Overall bioactivity in three categories: platelet anti-aggregation, life extension under hypoxia, anti-oxidation; conditions: anti-oxidation (liver cell protection)
Protocol: as §1

O=C(/C=C/c1ccc(O)c(O)c1/C=C/c1ccc(O)c(O)c1)OC(Cc1ccc(O)c(O)c1)C(=O)O (stereo not shown) [Salvianolic Acid A]
animal endurance capacity under hypoxia conditions, in words (animal): increase animal endurance capacity under hypoxia conditions

O=C(/C=C/c1ccc(O)c2c1C(C(=O)O)C(c1ccc(O)c(O)c1)O2)OC(Cc1ccc(O)c(O)c1)C(=O)O (stereo not shown) [Compound 4, Magnesium Lithospermate]
Degree of Inhibition (red blood cell lysis by H2O2) [1]: 100%
Effect (red blood cell lysis by H2O2) [1]: ++
Effect (rats under hypoxia condition) (rats [2]): +
Life Expanded (rats [2]): 45%
% Inhibition (platelet anti-aggregation) (Platelet aggregation [3]; 180 mcg/ml, in vitro): 0%
% Inhibition (platelet anti-aggregation) (Platelet aggregation [3]; 900 mcg/ml, in vitro): 28%

O=C(/C=C/c1ccc(O)c(O)c1)O[C@H](Cc1ccc(O)c(O)c1)C(=O)O [Compound 2, Sodium Rosmarinate]
Effect (red blood cell lysis by H2O2) [1]: ++
inhibition at 330 µg/mL [1]: 100%
Effect (rats under hypoxia condition) (rats [2]): ++
Life Expanded (rats [2]): 42%
inhibition at 180 µg/mL (Platelet aggregation [3]; Platelet, 180 mcg/ml, in vitro): 0%
inhibition at 900 µg/mL (Platelet aggregation [3]; Platelet, 900 mcg/ml, in vitro): 13%

O=Cc1ccc(O)c(O)c1 [Protocatechualdehydes, Protocatechualdehyde]
animal endurance capacity under hypoxia conditions, in words (animal): increase animal endurance capacity under hypoxia conditions

O=C(O)C(O)Cc1ccc(O)c(O)c1 (stereo not shown) [Danshensu, 3',4 phenyllatic Acid]
animal endurance capacity under hypoxia conditions, in words (animal): increase animal endurance capacity under hypoxia conditions

O=C(/C=C/c1ccc(O)c2c1C(C(=O)O)C(c1ccc(O)c(O)c1)O2)OC(Cc1ccc(O)c(O)c1)C(=O)O (stereo not shown) [Compound 3, Dipotassium Lithospermate]
Effect (red blood cell lysis by H2O2) [1]: ++
inhibition at 330 µg/mL [1]: 100%
Effect (rats under hypoxia condition) (rats [2]): +
Life Expanded (rats [2]): 23%
inhibition at 180 µg/mL (Platelet aggregation [3]; Platelet, 180 mcg/ml, in vitro): 0%
inhibition at 900 µg/mL (Platelet aggregation [3]; Platelet, 900 mcg/ml, in vitro): 18%

O=C(/C=C/c1ccc(O)c2c1C(C(=O)OC(Cc1ccc(O)c(O)c1)C(=O)O)C(c1ccc(O)c(O)c1)O2)OC(Cc1ccc(O)c(O)c1)C(=O)O (stereo not shown) [Compound 5, Dipotassium Salvianolate B]
Effect (red blood cell lysis by H2O2) [1]: ++
inhibition at 330 µg/mL [1]: 100%
% Inhibition (platelet anti-aggregation) (Platelet aggregation [3]; 900 mcg/ml, in vitro): 44%
Effect (platelet anti-aggregation) (Platelet aggregation [3]; 900 mcg/ml, in vitro): +
inhibition at 180 µg/mL (Platelet aggregation [3]; Platelet, 180 mcg/ml, in vitro): 0%

O=C(/C=C/c1ccc(O)c2c1[C@H](C(=O)O[C@H](Cc1ccc(O)c(O)c1)C(=O)O)[C@@H](c1ccc(O)c(O)c1)O2)O[C@H](Cc1ccc(O)c(O)c1)C(=O)O [Salvianolic Acid B]
animal endurance capacity under hypoxia conditions, in words (animal): increase animal endurance capacity under hypoxia conditions

O=C(/C=C/c1ccc(O)c2c1C(C(=O)OC(Cc1ccc(O)c(O)c1)C(=O)O)C(c1ccc(O)c(O)c1)O2)OC(Cc1ccc(O)c(O)c1)C(=O)O (stereo not shown) [Compound 6, Magnesium Salvianolate B]
inhibition at 900 µg/mL (Platelet aggregation [4]): 94%
% Life Extension (rats [5]; hypoxia condition, 200 mg/kg dose): 78%
extended rats life (up to) (rats [5]): up to 78%
Degree of Inhibition (red blood cell lysis by H2O2) [1]: 100%
Effect (red blood cell lysis by H2O2) [1]: ++
Effect (rats under hypoxia condition) (rats [2]): ++
Life Expanded (rats [2]): 65%
% Inhibition (platelet anti-aggregation) (Platelet aggregation [3]; 180 mcg/ml, in vitro): 0%
% Inhibition (platelet anti-aggregation) (Platelet aggregation [3]; 900 mcg/ml, in vitro): 74%
Effect (platelet anti-aggregation) (Platelet aggregation [3]; 900 mcg/ml, in vitro): +
inhibition at 450 µg/mL (Platelet aggregation [3]; Platelet, 450 mcg/ml, in vitro): 15%
platelet anti-aggregation potency, in words (Platelet aggregation [3]): highest potency
platelet anti-aggregation potency, in words (Platelet aggregation [3]; listed as MSV): most potent
secretion of MDA from liver cell, in words (Liver cell): decreases the secretion of MDA from liver cell
bioactivity level, in words [6]: highest bioactivity level
bioactivity level, in words ([6]; listed as Magnesium Salvianolate B): most biologically effective compound

O=C(O)C(O)Cc1ccc(O)c(O)c1 (stereo not shown) [Compound 1, Potassium 3' 4-dihydroxyphenyllactate]
Effect (red blood cell lysis by H2O2) [1]: ++
inhibition at 330 µg/mL [1]: 100%
inhibition at 180 µg/mL (Platelet aggregation [3]; Platelet, 180 mcg/ml, in vitro): 0%
inhibition at 900 µg/mL (Platelet aggregation [3]; Platelet, 900 mcg/ml, in vitro): 0%
bioactivity level, in words [6]: lowest bio-activity level

Magnesium Isosalvianolate B [Compound 8]
extended rats life (up to) (rats [5]): up to 78%
Degree of Inhibition (red blood cell lysis by H2O2) [1]: 100%
Effect (red blood cell lysis by H2O2) [1]: ++
Effect (rats under hypoxia condition) (rats [2]): ++
Life Expanded (rats [2]): 69%
% Inhibition (platelet anti-aggregation) (Platelet aggregation [3]; 180 mcg/ml, in vitro): 0%
% Inhibition (platelet anti-aggregation) (Platelet aggregation [3]; 900 mcg/ml, in vitro): 20%
